These results are taken from ChEMBL document CHEMBL1201862, “PubChem BioAssay data set” (2004).

Some test systems named below: EKVX; SR; HOP-62; SK-MEL-2; HL-60; SF-539; HOP-92; A549; HT-29; OVCAR-8; IGROV-1; RPMI-8226; NCI-H23; Malme-3M; U-251; SK-MEL-5; MDA-N; MCF7; Hs-578T; PC-3.
Common to all, as to assay: growth of human tumour cells (NCI), 48 h

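1) Cells in 96-well plates. 2) Compound, 48 h, 5 concentrations. 3) Linear interpolation between surrounding doses. 4) Unreached endpoint = highest concentration. GI50 = concentration required for 50% inhibition of growth.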 Activity calls are given as the source filed them. No stated cut-off is given here; in the data, active = GI50 up to about 1.1 µM and inactive = higher. Peptide text beside a SMILES is read from it. * marks the point of attachment. Boc = CC(C)(C)OC(=O)*; OBn = c1ccc(CO*)cc1

As for `COc1cc(O)c2c(c1)C(=O)C1=C(C2=O)C(O)C[C@@](C)(O)C1` (some centres undefined), the GI50 in the test on EKVX is 3.38 µM (inactive); in the test on SR it was 2.4 µM (inactive); in the test on HOP-62, 8.71 µM (inactive); in the test with SK-MEL-2 it was 1.63 µM (inactive); in the test on HL-60 it was 0.451 µM (active); in the test on SF-539, 2.57 µM (inactive). Besides, the GI50 was 1.1 µM (active) in the test on HOP-92; 2.34 µM (inactive) in the test with A549; 0.475 µM (active) in the test on HT-29; 1.16 µM (inactive) in the test with OVCAR-8; 1.79 µM (inactive) with IGROV-1; 1.86 µM (inactive) in the test on RPMI-8226. The GI50 with NCI-H23 is 1.53 µM (inactive); with Malme-3M it was 0.557 µM (active); with U-251, 2.49 µM (inactive).
For the molecule `CCC(CC)NC1=C(NC(C)=O)C(=O)c2ccccc2C1=O`, the GI50 in the test with EKVX, with SR, in the test with HOP-62, in the test with SK-MEL-2, with HL-60 and in the test on SF-539 was > 50 µM (inactive) in each case. Also, the GI50 in the test with HOP-92 was 0.339 µM (active); in the test with A549, > 50 µM (inactive); in the test on HT-29 it was > 50 µM (inactive); in the test on OVCAR-8 it was > 50 µM (inactive); with IGROV-1, > 50 µM (inactive); in the test with NCI-H23, > 50 µM (inactive). Moreover, the GI50 is > 50 µM (inactive) in the test on SK-MEL-5, 45.4 µM (inactive) with Malme-3M and > 50 µM (inactive) in the test on U-251.
Turning to `CC1=C(c2ccc(C)cc2)NC(=S)C(C)C(c2ccc(C)cc2)=N1` (centres undefined), the GI50 in the test with EKVX was 56.6 µM (inactive); with MDA-N, 83.9 µM (inactive); with SR it was > 10 µM (inactive); with HOP-62, 85.7 µM (inactive); in the test on HL-60, 30.3 µM (inactive); in the test with SF-539, 92.5 µM (inactive). Also, the GI50 was 81.5 µM (inactive) with A549; 65.6 µM (inactive) with HT-29; > 100 µM (inactive) in the test on OVCAR-8; > 100 µM (inactive) in the test on IGROV-1; 40.6 µM (inactive) in the test with RPMI-8226; 37 µM (inactive) with NCI-H23. The GI50 in the test on SK-MEL-5 was 60 µM (inactive); in the test on MCF7, 42 µM (inactive); with Malme-3M, 59 µM (inactive); with U-251, > 100 µM (inactive).
For `COC(=O)C(/C(=N/N)C(=O)Nc1cc(Cl)ccc1Cl)c1nc2ccc([N+](=O)[O-])cc2nc1O` (centres undefined), the GI50 in the test with EKVX is 72.8 µM (inactive); in the test on SR, > 100 µM (inactive); in the test with HOP-62 it was > 100 µM (inactive); in the test on SK-MEL-2 it was > 100 µM (inactive); in the test on HL-60, > 100 µM (inactive); in the test with SF-539, 93.3 µM (inactive). In addition, the GI50 in the test on HOP-92 is 30.7 µM (inactive); in the test with A549 it was > 100 µM (inactive); in the test with HT-29 it was > 100 µM (inactive); in the test with OVCAR-8, > 100 µM (inactive); in the test on IGROV-1, > 100 µM (inactive); with RPMI-8226, > 100 µM (inactive). Also, the GI50 with NCI-H23, in the test with SK-MEL-5, with Malme-3M and with U-251 was > 100 µM (inactive) each time.
On to `Clc1ccc(OCc2nnc3sc(SSc4nn5c(COc6ccc(Cl)cc6)nnc5s4)nn23)cc1`, for which the GI50 is 66.5 µM (inactive) with EKVX; > 100 µM (inactive) with HOP-62; > 100 µM (inactive) in the test on SK-MEL-2; > 100 µM (inactive) with HL-60; > 100 µM (inactive) in the test on SF-539; > 100 µM (inactive) with A549. The GI50 in the test with HT-29 is > 100 µM (inactive); in the test on Hs-578T, > 100 µM (inactive); in the test on OVCAR-8, > 100 µM (inactive); in the test with IGROV-1, > 100 µM (inactive); with RPMI-8226, 44.8 µM (inactive); in the test with NCI-H23 it was > 100 µM (inactive). In addition, the values for the GI50 in the test with SK-MEL-5, in the test with Malme-3M and in the test on U-251 were 60.8 µM (inactive), > 100 µM (inactive) and > 100 µM (inactive), respectively.
For the molecule `Cc1ccc2c(C)c3ccc4ccccc4c3c[n+]2c1.[O-][Cl+3]([O-])([O-])[O-]`, the GI50 was 13.7 µM (inactive) in the test on EKVX; 12 µM (inactive) in the test with SR; 13.8 µM (inactive) with HOP-62; 13.9 µM (inactive) with SK-MEL-2; 31.6 µM (inactive) with HL-60; 11.5 µM (inactive) with SF-539. Also, the GI50 was 17.9 µM (inactive) in the test on HOP-92; 16.3 µM (inactive) with A549; 32.4 µM (inactive) in the test on HT-29; 10 µM (inactive) in the test with OVCAR-8; 31.4 µM (inactive) with IGROV-1; 16.6 µM (inactive) in the test on RPMI-8226. For the same molecule, the GI50 in the test with NCI-H23 is 14.6 µM (inactive); with SK-MEL-5, 12 µM (inactive); in the test with Malme-3M, 2.88 µM (inactive); in the test with U-251 it was 5.02 µM (inactive).
Take `CCOC(=N)n1c(=O)n(C2=NCCN2)c2ccccc21`: the GI50 in the test on EKVX, in the test with MDA-N, in the test on SR, with HOP-62, in the test with HL-60 and in the test on SF-539 was > 100 µM (inactive) each time. The GI50 with HOP-92, in the test on A549, with HT-29, in the test on PC-3, with OVCAR-8 and with IGROV-1 was > 100 µM (inactive) in each case. Besides, the GI50 in the test with NCI-H23, with MCF7, with Malme-3M and with U-251 was > 100 µM (inactive) throughout.
As to `CCOC(=O)C1C2CCC1CC(=NNc1ccc([N+](=O)[O-])cc1[N+](=O)[O-])C2` (centres undefined), the GI50 is 30.3 µM (inactive) with EKVX; > 50 µM (inactive) in the test on MDA-N; 18.6 µM (inactive) in the test with SR; > 50 µM (inactive) with HOP-62; > 50 µM (inactive) with SK-MEL-2; > 50 µM (inactive) in the test on SF-539. Besides, the GI50 in the test with HOP-92 is 15.8 µM (inactive); in the test with A549, 37.6 µM (inactive); in the test on HT-29, 47.2 µM (inactive); in the test on PC-3 it was 39.6 µM (inactive); in the test on OVCAR-8 it was > 50 µM (inactive); in the test with IGROV-1, > 50 µM (inactive). In addition, the GI50 in the test on RPMI-8226 is 42.4 µM (inactive); with NCI-H23, > 50 µM (inactive); in the test with SK-MEL-5, 46.2 µM (inactive); with MCF7, > 50 µM (inactive); in the test on Malme-3M, > 50 µM (inactive); in the test on U-251, > 50 µM (inactive).
`CC(NC(=O)C(NC(=O)OC(C)(C)C)C(C)C)C(=O)N1CCCC1C(=O)NCC(=O)NC(C(=O)NCC(=O)OCc1ccccc1)C(C)C` (centres undefined) (Boc-VAPGVG-OBn; configuration not given here): the GI50 in the test with EKVX, in the test on MDA-N, in the test on SR, in the test on HOP-62, with SK-MEL-2 and in the test with HL-60 was > 100 µM (inactive) in each case. Further, the GI50 was > 100 µM (inactive) in the test on SF-539; > 100 µM (inactive) in the test on HOP-92; > 100 µM (inactive) in the test on HT-29; > 100 µM (inactive) in the test with PC-3; > 100 µM (inactive) with OVCAR-8; 62.1 µM (inactive) in the test on IGROV-1. The GI50 with RPMI-8226, in the test on NCI-H23, in the test with MCF7, in the test on Malme-3M and in the test on U-251 was > 100 µM (inactive) throughout.
For the molecule `Nc1ccc(-c2nn3c(COc4ccc(Cl)cc4)nnc3s2)cc1`, the GI50 with EKVX was 86.9 µM (inactive); with SK-MEL-2, > 100 µM (inactive); with HL-60 it was > 100 µM (inactive); in the test on A549, > 100 µM (inactive); with HT-29 it was > 100 µM (inactive); in the test with Hs-578T, 25.3 µM (inactive). Also, the GI50 is 88.7 µM (inactive) with PC-3; > 100 µM (inactive) with OVCAR-8; > 100 µM (inactive) in the test on IGROV-1; 77.6 µM (inactive) with RPMI-8226; > 100 µM (inactive) with NCI-H23; > 100 µM (inactive) in the test with SK-MEL-5. Also, the GI50 in the test on Malme-3M and in the test with U-251 was > 100 µM (inactive) throughout.
For `O=C(c1ccc(Cl)cc1)N(C(=S)N1CCN(c2ccccn2)CC1)C1CCCCC1`, the GI50 is 41.1 µM (inactive) in the test with SR; 71.8 µM (inactive) with HOP-62; > 100 µM (inactive) in the test with SK-MEL-2; 17.3 µM (inactive) in the test with HL-60; 61.7 µM (inactive) in the test with SF-539; > 100 µM (inactive) in the test with HOP-92. Further, the GI50 in the test with A549 is 45.1 µM (inactive); in the test with HT-29 it was 55.3 µM (inactive); with OVCAR-8 it was > 100 µM (inactive); with IGROV-1, > 100 µM (inactive); in the test with RPMI-8226 it was 25.5 µM (inactive); in the test on NCI-H23, 96.8 µM (inactive). Moreover, the GI50 with SK-MEL-5 was 38.7 µM (inactive); in the test on Malme-3M, > 100 µM (inactive); with U-251 it was 37.2 µM (inactive).
Consider `N#Cc1ccc(/C=N/C23CC4CC(CC(C4)C2)C3)cc1`, for which the GI50 was > 100 µM (inactive) with EKVX; > 100 µM (inactive) in the test with SR; > 100 µM (inactive) in the test on HOP-62; > 100 µM (inactive) with SK-MEL-2; 27 µM (inactive) in the test on HL-60; > 100 µM (inactive) with SF-539. The GI50 in the test with HOP-92 is 83.9 µM (inactive); in the test with A549, > 100 µM (inactive); in the test on HT-29, 63.1 µM (inactive); in the test with OVCAR-8, > 100 µM (inactive); in the test on IGROV-1 it was > 100 µM (inactive); with RPMI-8226, > 100 µM (inactive). Moreover, the GI50 was > 100 µM (inactive) in the test on NCI-H23, > 10 µM (inactive) in the test on SK-MEL-5, > 100 µM (inactive) in the test with Malme-3M and > 100 µM (inactive) with U-251.
